Like-named read-outs stand apart in the source and are kept apart here.
Assay: Plasma pharmacokinetics with loading dose and weekly or twice weekly maintenance dosing, fed (Example 5)
Assay type: in vivo, human
Conditions: human, plasma, oral; for Cmax: read-out: Mean Cmax (SD); for AUC: read-out: Mean AUCτ (SD); for AUC(0-inf): read-out: Mean AUC∞ (SD); for concentration at 72 h: read-out: Mean C72 h (SD)
Procedure: A pharmaceutical formulation comprising Compound (a) as described in Example 2 (SF2a/b) was administered as an oral dosage form, to healthy adult participants, in a fed state. Four dose regimens were applied: • Panel I (weekly dosing): 450 mg of Compound (a) twice a day (BID) for two days: on day 1 (D1) and on day 2 (D2) (loading dose); and then 900 mg once a week (Q7D), on day 3 (D3), day 10 (D10), day 17 (D17), and on day 24 (D24) (maintenance dose). • Panel II (biweekly dosing): 450 mg of Compound (a) twice a day (BID) for two days: on day 1 (D1) and on day 2 (D2); (loading dose) and then 450 mg once every 3 (Q3D) or 4 days (Q4D): on day 3 (D3), on day 6 (D6), on day 10 (D10), on day 13 (D13), on day 17 (D17), on day 20 (D20), on day 24 (D24), and on day 27 (D27), for a total of 900 mg each week administered through two doses of 450 mg each (maintenance dose). • Panel III (weekly dosing): 150 mg of Compound (a) twice a day (BID) for two days: on day 1 (D1) and on day 2 (D2) (loading dose); and then 300 mg once a week (Q7D): on day 3 (D3), day 10 (D10), day 17 (D17), and on day 24 (D24) (maintenance dose). • Panel IV (biweekly dosing): 150 mg of Compound (a) twice a day (BID) for two days: on day 1 (D1) and on day 2 (D2) (loading dose); and then 150 mg Q3D or Q4D: on day 3 (D3), on day 6 (D6), on day 10 (D10), on day 13 (D13), on day 17 (D17), on day 20 (D20), on day 24 (D24), and on day 27 (D27), for a total of 300 mg each week administered through two doses of 150 mg each (maintenance dose).
Oral dosage forms were administered together with approximately 240 mL of non-carbonated water under fed conditions, and were taken within 10 minutes after completion of normal standardized normal fat breakfast in the morning or after completion of normal standardized normal fat dinner in case of evening dosing. Intake of Compound (a) took place at around the same time each day. Intake of Compound (a) marked time 0 hours.
A standardized normal fat meal was served approximately 30 minutes before study drug intake. The standardized normal fat meal contained approximately 21 g of fat, 67 g of carbohydrates, 19 g of proteins resulting in around 533 kcal (an example meal is 4 slices of bread, 2 slices of ham or cheese, butter, jelly, and 1 or 2 cups (up to 355 mL) of decaffeinated coffee or tea with milk and/or sugar). The standardized normal fat meal was ingested entirely within 30 minutes or less. Within 10 minutes after completing the meal, but no more than 30 minutes after the start of the meal, study drug was administered. In case of Compound (a) intake in the evening, timing of standardized dinner was aligned to time of drug intake. […]
For Study Panel 1 only, additional whole blood samples were be collected on Days 1, 24, 25, 26, 38, 45, 51, and 59 using venipuncture. The whole blood samples were be used for the determination of Compound (a) whole blood concentrations and for determination of Compound (a) plasma concentrations. To determine Compound (a) venous whole blood concentrations, an aliquot of the whole blood sample was be pipetted onto the TASSO M-20 for better comparison with capillary whole blood samples collected by TASSO M-20. […]
Separation between metabolites and interfering endogenous compounds was achieved by injecting 2 μL sample extract onto an Acquity UPLC BEH C18 column (50×2.1 mm, 1.7 μm, Waters) at 50° C. and using 10 mM ammonium bicarbonate solution as mobile phase A, and methanol: acetonitrile (50:50, v/v) as mobile phase B. A gradient elution at a flow rate of 0.600 mL/min was applied using the following program: 35% B was increased to 90% B in 3 min, was further increased to 98% B at 3.01 min and held constant up to 4.00 min.
A Triple Quad 6500+ mass spectrometer (Sciex) equipped with a turbo ion spray source was used for analyte detection in positive ion mode using electrospray ionization. […]

[1] = 450 mg, Panel I (450 mg BID Days 1-2, then 900 mg Q7D; SF2a/b, fed), Day 2
[2] = 450 mg, Panel II (450 mg BID Days 1-2, then 450 mg Q3D/Q4D; SF2a/b, fed), Day 27
[3] = Panel I (450 mg BID Days 1-2, then 900 mg Q7D; SF2a/b, fed), Day 24
[4] = Panel II (450 mg BID Days 1-2, then 450 mg Q3D/Q4D; SF2a/b, fed), Day 2
[5] = Panel III (150 mg BID Days 1-2, then 300 mg Q7D; SF2a/b, fed), Day 24
[6] = Panel IV (150 mg BID Days 1-2, then 150 mg Q3D/Q4D; SF2a/b, fed), Day 2

- Cmax (300 mg, Panel III (150 mg BID Days 1-2, then 300 mg Q7D; SF2a/b, fed), Day 3): 3100 ng/mL
- Tmax (300 mg, Panel III (150 mg BID Days 1-2, then 300 mg Q7D; SF2a/b, fed), Day 3, read-out: Median tmax (min-max)): 5 h
- AUC (450 mg, Panel I (450 mg BID Days 1-2, then 900 mg Q7D; SF2a/b, fed), Day 1): 17.5 µg·h/mL
- Tmax (450 mg, Panel I (450 mg BID Days 1-2, then 900 mg Q7D; SF2a/b, fed), Day 1, read-out: Median tmax (min-max)): 7.5 h
- AUC [1]: 46.5 µg·h/mL
- Cmax [1]: 5080 ng/mL
- Tmax (450 mg, Panel I (450 mg BID Days 1-2, then 900 mg Q7D; SF2a/b, fed), Day 2, read-out: Median tmax (min-max)): 5.5 h
- Cmax (450 mg, Panel II (450 mg BID Days 1-2, then 450 mg Q3D/Q4D; SF2a/b, fed), Day 1): 1960 ng/mL
- AUC(0-t) (450 mg, Panel II (450 mg BID Days 1-2, then 450 mg Q3D/Q4D; SF2a/b, fed), Day 3, read-out: Mean AUC24 h (SD)): 110 µg·h/mL
- AUC(0-t) (450 mg, Panel II (450 mg BID Days 1-2, then 450 mg Q3D/Q4D; SF2a/b, fed), Day 3, read-out: Mean AUC72 h (SD)): 263 µg·h/mL
- Cmax (450 mg, Panel II (450 mg BID Days 1-2, then 450 mg Q3D/Q4D; SF2a/b, fed), Day 3): 5950 ng/mL
- Tmax (450 mg, Panel II (450 mg BID Days 1-2, then 450 mg Q3D/Q4D; SF2a/b, fed), Day 3, read-out: Median tmax (min-max)): 6.5 h
- Cmax (450 mg, Panel II (450 mg BID Days 1-2, then 450 mg Q3D/Q4D; SF2a/b, fed), Day 6): 4380 ng/mL
- Cmax (450 mg, Panel II (450 mg BID Days 1-2, then 450 mg Q3D/Q4D; SF2a/b, fed), Day 10): 4080 ng/mL
- Cmax (450 mg, Panel II (450 mg BID Days 1-2, then 450 mg Q3D/Q4D; SF2a/b, fed), Day 13): 4070 ng/mL
- Cmax (450 mg, Panel II (450 mg BID Days 1-2, then 450 mg Q3D/Q4D; SF2a/b, fed), Day 17): 3940 ng/mL
- Cmax (450 mg, Panel II (450 mg BID Days 1-2, then 450 mg Q3D/Q4D; SF2a/b, fed), Day 20): 4060 ng/mL
- Cmax (450 mg, Panel II (450 mg BID Days 1-2, then 450 mg Q3D/Q4D; SF2a/b, fed), Day 24): 3920 ng/mL
- AUC(0-t) (450 mg, Panel II (450 mg BID Days 1-2, then 450 mg Q3D/Q4D; SF2a/b, fed), Day 27, read-out: Mean AUC24 h (SD)): 74.2 µg·h/mL
- AUC(0-t) (450 mg, Panel II (450 mg BID Days 1-2, then 450 mg Q3D/Q4D; SF2a/b, fed), Day 27, read-out: Mean AUC72 h (SD)): 197 µg·h/mL
- AUC(0-t) (450 mg, Panel II (450 mg BID Days 1-2, then 450 mg Q3D/Q4D; SF2a/b, fed), Day 27, read-out: Mean AUClast (SD)): 771 µg·h/mL
- AUC(0-inf) [2]: 809 µg·h/mL
- Cmax [2]: 3980 ng/mL
- Tmax (450 mg, Panel II (450 mg BID Days 1-2, then 450 mg Q3D/Q4D; SF2a/b, fed), Day 27, read-out: Median tmax (min-max)): 6 h
- AUC(0-t) (900 mg, Panel I (450 mg BID Days 1-2, then 900 mg Q7D; SF2a/b, fed), Day 3, read-out: Mean AUC24 h (SD)): 129 µg·h/mL
- AUC(0-t) (900 mg, Panel I (450 mg BID Days 1-2, then 900 mg Q7D; SF2a/b, fed), Day 3, read-out: Mean AUC72 h (SD)): 318 µg·h/mL
- Cmax (900 mg, Panel I (450 mg BID Days 1-2, then 900 mg Q7D; SF2a/b, fed), Day 3): 6560 ng/mL
- Tmax (900 mg, Panel I (450 mg BID Days 1-2, then 900 mg Q7D; SF2a/b, fed), Day 3, read-out: Median tmax (min-max)): 5 h
- Cmax (Panel I (450 mg BID Days 1-2, then 900 mg Q7D; SF2a/b, fed), Day 1): 2020 ng/mL
- Cmax (Panel I (450 mg BID Days 1-2, then 900 mg Q7D; SF2a/b, fed), Day 10): 4240 ng/mL
- Cmax (Panel I (450 mg BID Days 1-2, then 900 mg Q7D; SF2a/b, fed), Day 17): 4280 ng/mL
- AUC(0-t) (Panel I (450 mg BID Days 1-2, then 900 mg Q7D; SF2a/b, fed), Day 24, read-out: Mean AUC24 h (SD)): 79.7 µg·h/mL
- AUC(0-t) (Panel I (450 mg BID Days 1-2, then 900 mg Q7D; SF2a/b, fed), Day 24, read-out: Mean AUC72 h (SD)): 195 µg·h/mL
- AUC(0-t) (Panel I (450 mg BID Days 1-2, then 900 mg Q7D; SF2a/b, fed), Day 24, read-out: Mean AUClast (SD)): 657 µg·h/mL
- AUC(0-inf) [3]: 676 µg·h/mL
- Cmax [3]: 4260 ng/mL
- Tmax (Panel I (450 mg BID Days 1-2, then 900 mg Q7D; SF2a/b, fed), Day 24, read-out: Median tmax (min-max)): 6 h
- AUC (Panel II (450 mg BID Days 1-2, then 450 mg Q3D/Q4D; SF2a/b, fed), Day 1): 15.5 µg·h/mL
- Tmax (Panel II (450 mg BID Days 1-2, then 450 mg Q3D/Q4D; SF2a/b, fed), Day 1, read-out: Median tmax (min-max)): 5.5 h
- AUC [4]: 44.9 µg·h/mL
- Cmax [4]: 4640 ng/mL
- Tmax (Panel II (450 mg BID Days 1-2, then 450 mg Q3D/Q4D; SF2a/b, fed), Day 2, read-out: tmax): 5 h
- Cmax (Panel III (150 mg BID Days 1-2, then 300 mg Q7D; SF2a/b, fed), Day 1): 741 ng/mL
- Cmax (Panel III (150 mg BID Days 1-2, then 300 mg Q7D; SF2a/b, fed), Day 10): 2180 ng/mL
- Cmax (Panel III (150 mg BID Days 1-2, then 300 mg Q7D; SF2a/b, fed), Day 17): 2050 ng/mL
- AUC(0-t) (Panel III (150 mg BID Days 1-2, then 300 mg Q7D; SF2a/b, fed), Day 24, read-out: Mean AUC24 h (SD)): 37.2 µg·h/mL
- AUC(0-t) (Panel III (150 mg BID Days 1-2, then 300 mg Q7D; SF2a/b, fed), Day 24, read-out: Mean AUC72 h (SD)): 92.5 µg·h/mL
- AUC(0-t) (Panel III (150 mg BID Days 1-2, then 300 mg Q7D; SF2a/b, fed), Day 24, read-out: Mean AUClast (SD)): 299 µg·h/mL
- AUC(0-inf) [5]: 325 µg·h/mL
- Cmax [5]: 2130 ng/mL
- Tmax (Panel III (150 mg BID Days 1-2, then 300 mg Q7D; SF2a/b, fed), Day 24, read-out: Median tmax (min-max)): 7 h
- AUC (Panel IV (150 mg BID Days 1-2, then 150 mg Q3D/Q4D; SF2a/b, fed), Day 1): 5.98 µg·h/mL
- Tmax (Panel IV (150 mg BID Days 1-2, then 150 mg Q3D/Q4D; SF2a/b, fed), Day 1, read-out: Median tmax (min-max)): 5 h
- AUC [6]: 15.8 µg·h/mL
- Cmax [6]: 1600 ng/mL
- Tmax (Panel IV (150 mg BID Days 1-2, then 150 mg Q3D/Q4D; SF2a/b, fed), Day 2, read-out: tmax): 5 h
- concentration at 72 h (Panel I (450 mg BID Days 1-2, then 900 mg Q7D; SF2a/b, fed), Day 3): 3440 ng/mL
- concentration at 72 h (Panel II (450 mg BID Days 1-2, then 450 mg Q3D/Q4D; SF2a/b, fed), Day 3): 2710 ng/mL
- concentration at 72 h (Panel III (150 mg BID Days 1-2, then 300 mg Q7D; SF2a/b, fed), Day 3): 1210 ng/mL
- concentration at 72 h (Panel IV (150 mg BID Days 1-2, then 150 mg Q3D/Q4D; SF2a/b, fed), Day 3): 865 ng/mL
Structure (SMILES): COc1cc(NC(C(=O)c2c[nH]c3ccc(OC(F)(F)F)cc23)c2ccc(Cl)cc2OC)cc(S(C)(=O)=O)c1 (stereo not drawn) [Compound (a)]
